The values that follow come from patent publication US11155517B2, “4-substituted phenylamine derivatives and their use to protect crops by fighting undesired phytopathogenic micoorganisms” (PI INDUSTRIES LTD., priority 2016, dated 2021).

The test system of one assay is Pyricularia oryzae. Description: microbe, parasite or virus in culture. Type of assay: cell-based. To be noted: 168 h, read-out: % control compared to the untreated check (radial growth).
Another assay concerns Fusarium culmorum. Kind of assay: Fusarium culmorum (foot rot of cereals) in vitro test, radial growth on Potato Dextrose Agar. To be noted: Fusarium culmorum, 168 h, read-out: % control compared to the untreated check (radial growth). Type of assay: cell-based.
Another assay deals with Botrytis cinerea. Kind of assay: Botrytis cinerea (gray mold) in vitro test, radial growth on Potato Dextrose Agar. The format is cell-based. The settings on record: 168 h, 300 ppm, seven days, 22° C., read-out: % (control) compared to the untreated check (radial growth).
For a further assay, the system named is Rhizoctonia solani. Kind of assay: Rhizoctonia solani (rice sheath blight/potato black scurf) in vitro test, radial growth on Potato Dextrose Agar. The settings on record: 168 h, 300 ppm, seven days, 25° C., read-out: % control compared to the untreated check (radial growth). The format is cell-based.
In another assay the test system is Botrytis cinera. Description: Greenhouse Botrytis cinera test in tomato, preventive. The format is in vivo. The settings on record: 24 h, plants sprayed one day before inoculation, read-out: Efficacy (% control), disease severity vs untreated check.
The subject of a further assay is Alternaria solani. Kind of assay: Alternaria solani (early blight of tomato/potato) in vitro test, radial growth on Potato Dextrose Agar. The format is cell-based. The settings on record: 168 h, 300 ppm, seven days, 25° C., read-out: % control compared to the untreated check (radial growth).
Another assay has as its system Colletotrichum capsici. Description: Colletotrichum capsici (anthracnose) in vitro test, radial growth on Potato Dextrose Agar. The format is cell-based. To be noted: Colletotrichum truncatum, 168 h; 300 ppm; seven days, 25° C.; read-out: % control compared to the untreated check (radial growth).
Another assay relates to Septoria lycopersici. Description: Septoria lycopersici (leaf spot of tomato) in vitro test, radial growth on Potato Dextrose Agar. The format is cell-based. To be noted: 168 h, seven days, 25° C., read-out: % control compared to the untreated check (radial growth).

`CCN(C)C=Nc1cc(C)c(Cc2ccc(Br)cc2)cc1C` [Compound 4, N′-(4-(4-bromobenzyl)-2,5-dimethylphenyl)-N-ethyl-N-methylformimidamide]: the inhibition of growth at 300 ppm in the assay with Pyricularia oryzae is more than 75%; in the assay on Fusarium culmorum, 75%; with Botrytis cinerea, more than 80%; in the assay on Rhizoctonia solani, more than 80%; in the assay on Alternaria solani, more than 75%; in the assay on Colletotrichum capsici, more than 80%. The inhibition of growth at 300 ppm in the assay with Septoria lycopersici is more than 70%. The pest or weed control at 500 ppm in the assay on Botrytis cinera was in the range of 70 to 100%.

On to `CCN(C)C=Nc1cc(C)c(Cc2ccc(Cl)c(F)c2)cc1C` [Compound 105, N′-(4-(4-chloro-3-fluorobenzyl)-2,5-dimethylphenyl)-N-ethyl-N-methylformimidamide], for which the inhibition of growth at 300 ppm with Pyricularia oryzae was more than 75%; in the assay with Fusarium culmorum it was 75%; in the assay on Botrytis cinerea, more than 80%; with Rhizoctonia solani, more than 80%; in the assay on Alternaria solani, more than 75%; in the assay on Colletotrichum capsici, more than 80%. The inhibition of growth at 300 ppm with Septoria lycopersici was more than 70%. Moreover, the pest or weed control at 500 ppm in the assay on Botrytis cinera lay in the range of 70 to 100%.

In the case of `CCN(C)C=Nc1cc(C)c(Cc2cccc(C)c2)cc1C` [Compound 6, N′-(2,5-dimethyl-4-(3-methylbenzyl)phenyl)-N-ethyl-N-methylformimidamide], the inhibition of growth at 300 ppm with Pyricularia oryzae was more than 75%; in the assay with Fusarium culmorum, 75%; with Botrytis cinerea it was more than 80%; with Rhizoctonia solani, more than 80%; in the assay with Alternaria solani, more than 75%; with Colletotrichum capsici, more than 80%. Moreover, in the assay on Septoria lycopersici, the inhibition of growth at 300 ppm was more than 70%. In addition, the pest or weed control at 500 ppm with Botrytis cinera was in the range of 70 to 100%.

Regarding `CCN(C)C=Nc1cc(C)c(Cc2c(F)cccc2Cl)cc1Cl` [Compound 184, N′-(2-chloro-4-(2-chloro-6-fluorobenzyl)-5-methylphenyl)-N-ethyl-N-methylformimidamide], the inhibition of growth at 300 ppm with Pyricularia oryzae is more than 75%; in the assay on Botrytis cinerea, more than 80%; in the assay on Rhizoctonia solani, more than 80%; in the assay on Alternaria solani, more than 75%; in the assay on Colletotrichum capsici, more than 80%. In addition, the pest or weed control at 500 ppm with Botrytis cinera was in the range of 70 to 100%.

Consider `CCN(C)C=Nc1cc(C)c(Cc2cccc(Cl)c2)cc1C` [Compound 11, N′-(4-(3-chlorobenzyl)-2,5-dimethylphenyl)-N-ethyl-N-methylformimidamide], for which the inhibition of growth at 300 ppm was more than 75% in the assay on Pyricularia oryzae; 75% in the assay on Fusarium culmorum; more than 80% in the assay with Botrytis cinerea; more than 80% in the assay on Rhizoctonia solani; more than 75% in the assay on Alternaria solani; more than 80% with Colletotrichum capsici. Also, the pest or weed control at 500 ppm in the assay with Botrytis cinera was 70 to 100%.

Turning to `CCN(C)C=Nc1cc(C)c(Cc2ccccc2[S+](C)[O-])cc1C` (stereo not shown) [Compound 24, N′-(2,5-dimethyl-4-(2-(methylsulfinyl)benzyl)phenyl)-N-ethyl-N-methylformimidamide], the inhibition of growth at 300 ppm in the assay with Pyricularia oryzae is more than 75%; with Rhizoctonia solani it was more than 80%; in the assay on Alternaria solani, more than 75%; in the assay with Septoria lycopersici it was more than 70%. In the assay on Botrytis cinera, the pest or weed control at 500 ppm was 70 to 100%.

`CCN(C)C=Nc1cc(C)c(Cc2cc(Cl)cc(Cl)c2)cc1C` [Compound 3, N′-(4-(3,5-dichlorobenzyl)-2,5-dimethylphenyl)-N-ethyl-N-methylformimidamide]: the inhibition of growth at 300 ppm in the assay on Pyricularia oryzae is more than 75%; with Botrytis cinerea, more than 80%; in the assay with Rhizoctonia solani it was more than 80%; in the assay with Alternaria solani, more than 75%; in the assay on Colletotrichum capsici it was more than 80%; with Septoria lycopersici it was more than 70%. The pest or weed control at 500 ppm with Botrytis cinera was in the range of 70 to 100%.

Regarding `CCN(C)C=Nc1cc(C)c(Cc2ccccc2OC(F)(F)F)cc1Cl` [Compound 102, N′-(2-chloro-5-methyl-4-(2-(trifluoromethoxy)benzyl)phenyl)-N-ethyl-N-methylformimidamide], the inhibition of growth at 300 ppm in the assay on Pyricularia oryzae was more than 75%; with Botrytis cinerea, more than 80%; in the assay with Rhizoctonia solani, more than 80%; with Alternaria solani, more than 75%; in the assay on Colletotrichum capsici, more than 80%; in the assay with Septoria lycopersici, more than 70%. For the same molecule, the pest or weed control at 500 ppm with Botrytis cinera lay within 70 to 100%.

On to `CCN(C)C=Nc1c(C)cc(Cc2ccc(Br)cc2)c(C)c1Br` [Compound 10, N′-(2-bromo-4-(4-bromobenzyl)-3,6-dimethylphenyl)-N-ethyl-N-methylformimidamide], for which the inhibition of growth at 300 ppm in the assay on Pyricularia oryzae is more than 75%; in the assay with Botrytis cinerea, more than 80%; with Rhizoctonia solani it was more than 80%; in the assay with Alternaria solani, more than 75%; in the assay with Colletotrichum capsici it was more than 80%. Moreover, the pest or weed control at 500 ppm with Botrytis cinera was in the range of 70 to 100%.

`CCN(C)C=Nc1cc(C)c(Cc2cc(Cl)ccc2Cl)cc1Cl` [Compound 166, N′-(2-chloro-4-(2,5-dichlorobenzyl)-5-methylphenyl)-N-ethyl-N-methylformimidamide]: the inhibition of growth at 300 ppm with Pyricularia oryzae is more than 75%; in the assay on Botrytis cinerea, more than 80%; in the assay on Rhizoctonia solani it was more than 80%; with Alternaria solani it was more than 75%; with Colletotrichum capsici it was more than 80%; in the assay with Septoria lycopersici, more than 70%. Also, the pest or weed control at 500 ppm in the assay on Botrytis cinera lay within 70 to 100%.

On to `CCN(C)C=Nc1cc(C)c(Cc2ccc(C)c(F)c2)cc1C` [Compound 144, N-ethyl-N′-(4-(3-fluoro-4-methylbenzyl)-2,5-dimethylphenyl)-N-methylformimidamide], for which the inhibition of growth at 300 ppm is more than 75% with Pyricularia oryzae; 75% in the assay with Fusarium culmorum; more than 80% in the assay on Botrytis cinerea; more than 80% in the assay on Rhizoctonia solani; more than 75% with Alternaria solani; more than 80% in the assay on Colletotrichum capsici. Moreover, the inhibition of growth at 300 ppm in the assay with Septoria lycopersici is more than 70%.

As for `CCN(C)C=Nc1cc(Cl)c(Cc2cccc(F)c2)cc1C` [Compound 259, N′-(5-chloro-4-(3-fluorobenzyl)-2-methylphenyl)-N-ethyl-N-methylformimidamide], the inhibition of growth at 300 ppm in the assay on Pyricularia oryzae was more than 75%; in the assay with Fusarium culmorum it was 75%; in the assay with Botrytis cinerea it was more than 80%; in the assay on Rhizoctonia solani it was more than 80%; in the assay on Alternaria solani, more than 75%; with Colletotrichum capsici it was more than 80%. Besides, the inhibition of growth at 300 ppm in the assay with Septoria lycopersici was more than 70%.

Consider `CCN(C)C=Nc1cc(C)c(Cc2ccc(C)c(C)c2)cc1C` [Compound 113, N′-(4-(3,4-dimethylbenzyl)-2,5-dimethylphenyl)-N-ethyl-N-methylformimidamide], for which the inhibition of growth at 300 ppm was more than 75% in the assay on Pyricularia oryzae; 75% with Fusarium culmorum; more than 80% in the assay on Botrytis cinerea; more than 80% in the assay with Rhizoctonia solani; more than 75% in the assay on Alternaria solani; more than 80% with Colletotrichum capsici. The inhibition of growth at 300 ppm in the assay with Septoria lycopersici is more than 70%.

Regarding `CCN(C)C=Nc1cc(C)c(Cc2cccc(OC)c2)cc1Cl` [Compound 70, N′-(2-chloro-4-(3-methoxybenzyl)-5-methylphenyl)-N-ethyl-N-methylformimidamide], the inhibition of growth at 300 ppm in the assay on Pyricularia oryzae is more than 75%; with Fusarium culmorum, 75%; with Botrytis cinerea, more than 80%; in the assay on Rhizoctonia solani, more than 80%; in the assay with Alternaria solani, more than 75%; in the assay on Colletotrichum capsici, more than 80%. In addition, the inhibition of growth at 300 ppm in the assay on Septoria lycopersici was more than 70%.

Take `Cc1cc(N=CN2CCCCC2)c(C)cc1Cc1ccccc1F` [Compound 58, N-(4-(2-fluorobenzyl)-2,5-dimethylphenyl)-1-(piperidin-1-yl)methanimine]: the inhibition of growth at 300 ppm in the assay on Pyricularia oryzae is more than 75%; with Fusarium culmorum, 75%; with Botrytis cinerea, more than 80%; with Rhizoctonia solani, more than 80%; in the assay on Alternaria solani it was more than 75%; in the assay with Colletotrichum capsici it was more than 80%. Moreover, the inhibition of growth at 300 ppm with Septoria lycopersici was more than 70%.

`Cc1cc(N=CN(C#N)CC#N)c(C)cc1Cc1ccccc1Cl` [Compound 90, N′-(4-(2-chlorobenzyl)-2,5-dimethylphenyl)-N-cyano-N-(cyanomethyl)formimidamide]: the pest or weed control at 500 ppm in the assay with Botrytis cinera lay in the range of 70 to 100%.

For the molecule `CCN(C)C=Nc1cc(Cl)c(Cc2cccc(Cl)c2)cc1C` [Compound 258, N′-(5-chloro-4-(3-chlorobenzyl)-2-methylphenyl)-N-ethyl-N-methylformimidamide], the inhibition of growth at 300 ppm in the assay on Pyricularia oryzae is more than 75%; in the assay with Fusarium culmorum it was 75%; with Botrytis cinerea it was more than 80%; in the assay on Rhizoctonia solani it was more than 80%; with Alternaria solani, more than 75%; in the assay with Colletotrichum capsici, more than 80%. Besides, in the assay with Septoria lycopersici, the inhibition of growth at 300 ppm was more than 70%.
